According to PubChem BioAssay AID749 (The Scripps Research Institute Molecular Screening Center, 2007):
Calls of active or inactive are those of the source.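 Rule for the calls: active = IC50 at or below 10 micromolar; inactive = IC50 above 10 micromolar.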

Each compound was assayed against 5-hydroxytryptamine receptor 1E (Homo sapiens) (UniProt P28566) (assay: blockade of human 5HT1E serotonin receptor – cell-based, dose response (AID 749)). Conditions: CHO 5-HT1E Ga15 NFAT-BLA reporter, FRET.
Chain of 5-hydroxytryptamine receptor 1E (Homo sapiens) (P28566 whole entry, looked up): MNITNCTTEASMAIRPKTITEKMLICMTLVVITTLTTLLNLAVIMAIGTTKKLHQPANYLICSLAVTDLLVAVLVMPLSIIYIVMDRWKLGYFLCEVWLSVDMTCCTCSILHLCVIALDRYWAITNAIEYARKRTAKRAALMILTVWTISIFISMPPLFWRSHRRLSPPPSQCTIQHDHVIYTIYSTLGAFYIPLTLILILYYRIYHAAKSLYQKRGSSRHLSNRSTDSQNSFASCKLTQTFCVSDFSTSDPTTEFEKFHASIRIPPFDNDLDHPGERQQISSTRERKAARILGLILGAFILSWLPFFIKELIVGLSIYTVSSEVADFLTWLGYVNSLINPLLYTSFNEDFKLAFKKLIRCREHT
For Clc1ccc(-n2nnnc2Sc2ncnc3sccc23)cc1, the IC50 was 3.5 µM. Work on CS(=O)(=O)c1nc(-c2ccccc2)cc(C(F)(F)F)n1 yielded an IC50 of 2.13 µM. In the case of COC(=O)/C(=C1/Oc2cc(C)oc(=O)c2S1)C(F)(F)F, the IC50 is reported as 1.86 µM. For CCn1c(=O)c(C(=O)Nc2nc3ccccc3[nH]2)c(O)c2ccccc21, the IC50 was “inactive”. With COc1ccccc1-c1nnc2n1N=C(c1ccc(O)c(O)c1)CS2 the IC50 was > 50 µM (inactive). With CCC(NC(=O)Nc1nnc(C(F)(F)F)s1)(C(F)(F)F)C(F)(F)F the IC50 was “inactive”. With O=C(Nc1ccc(N2CCOCC2)cc1)Nc1ccc2nc(-c3ccco3)c(-c3ccco3)nc2c1 the IC50 was > 17.2 µM (inactive). CS(=O)(=O)c1nc(-c2cccs2)cc(C(F)(F)F)n1 gave an IC50 of 1.93 µM. O=C1C2C3C=CC(CO)(O3)C2C(=O)N1c1ccc(-c2ccccc2)cc1 (configuration not stated) showed an IC50 of 4.91 µM. In the case of COc1cc2c(cc1OC)-c1cc(N3CCCc4ccccc43)nc(=O)n1CC2, the IC50 is reported as > 50 µM (inactive). CCn1nc(-c2ccccc2)nc2c(=O)n(C)c(=O)nc1-2 was tested, and the IC50 was > 50 µM (inactive). With COCCOC(=O)c1[nH]c2c(c1C)C(=O)CC(c1ccccc1)C2 (configuration not stated) the IC50 was > 50 µM (inactive). In the case of CC(C)=CCC(C)(C)CNC(=O)NC1CCCCC1, the IC50 is reported as > 50 µM (inactive). CCCOCCOC(=O)c1[nH]c2c(c1C)C(=O)CC(c1cc(OC)ccc1OC)C2 (configuration not stated) was tested, and the IC50 was > 50 µM (inactive). Cc1ccc(-n2nc3c([n+]2[O-])CCc2c-3no[n+]2[O-])cc1 was tested, and the IC50 was 3.9 µM. Work on CS(=O)(=O)c1nc(-c2ccco2)cc(C(F)(F)F)n1 yielded an IC50 of 2.26 µM. With CC(=O)Nc1cc(OC(C)=O)c2nonc2c1OC(C)=O the IC50 was 2.1 µM. CCCc1nnc2n1N=C(c1ccc(OC)c(OC)c1)CS2 was tested, and the IC50 was > 50 µM (inactive). In the case of COc1ccc(N2C(=O)CC(NCc3ccncc3)C2=O)cc1 (configuration not stated), the IC50 is reported as > 50 µM (inactive). With N#CCCS(=O)(=O)c1nnnn1-c1ccccc1 the IC50 was 2.79 µM. With COc1cccc(N2CCN(c3ncnc4c3cnn4-c3ccc(C)cc3C)CC2)c1 the IC50 was 6.99 µM. N#C/C(=C/c1ccc(N2CCCCCC2)o1)c1ccc(F)cc1 was tested, and the IC50 was 5.2 µM. With COc1ccc(-c2cc(C(F)(F)F)nc(S(C)(=O)=O)n2)cc1OC the IC50 was 2.91 µM. With O=C(Nc1ccc(-c2nc3ncccc3o2)cc1)c1ccc(Br)o1 the IC50 was > 50 µM (inactive). COc1cccc(N2CCN(c3ncnc4c3[nH]c3ccccc34)CC2C)c1 (configuration not stated) gave an IC50 of 8.24 µM. For COC(=O)Nc1nc2ccc(Sc3ccccc3)cc2[nH]1, the IC50 was > 50 µM (inactive). COc1cc2c(cc1OC)C1=C(C#N)CC/C(=N\S(=O)(=O)c3ccccc3)N1CC2 was tested, and the IC50 was > 50 µM (inactive). In the case of COc1ccc(C2N(c3ccc(F)cc3)C(=O)C3CCCN32)cc1 (configuration not stated), the IC50 is reported as > 38.2 µM (inactive). In the case of CCCOc1ccc2nc(NC(=O)OC)[nH]c2c1, the IC50 is reported as > 50 µM (inactive). With CN(C)c1nc(OCCNC(=O)COc2ccc(Cl)cc2Cl)nc(N2CCCCC2)n1 the IC50 was > 50 µM (inactive). For CCOc1cccc(-c2nnc3n2N=C(c2cc(OC)ccc2OC)CS3)c1, the IC50 was > 32.7 µM (inactive). For CCN(CC)c1ccc2c(Cl)c(Br)c(=O)oc2c1, the IC50 was 0.999 µM. CCOc1ccc(C2=Nn3c(nnc3-c3ccccc3OC)SC2)cc1 was tested, and the IC50 was > 50 µM (inactive). In the case of Cc1ccc(S(=O)(=O)Nc2cccc3ncccc23)s1, the IC50 is reported as 2.91 µM. With CSc1ccccc1N=CC1=C(O)CC(C)(C)CC1=O the IC50 was 2.35 µM. For COc1cc(NS(=O)(=O)c2ccc(C)cc2)c2ncccc2c1, the IC50 was 3.75 µM. For O=S1(=O)C=C(Sc2nnc(-c3ccccc3)o2)c2ccccc21, the IC50 was 1.04 µM. For COc1ccc(-n2nnnc2S(=O)(=O)CC(=O)N2CCCCC2)cc1, the IC50 was 2.61 µM. With CC(=O)Oc1ccc(N2C(=O)C3C(C2=O)C2(C)C=CC3(C)O2)cc1 (configuration not stated) the IC50 was 2.62 µM. CCn1nc(-c2cccs2)nc2c(=O)n(C)c(=O)nc1-2 gave an IC50 of 0.629 µM. For Cn1c(-c2c(N)n(C3CCCC3)c3nc4ccccc4nc23)nc2ccccc21, the IC50 was 3.64 µM. With COc1cccc(N2CCN(c3ncnc4c3[nH]c3ccc(F)cc34)CC2C)c1 (configuration not stated) the IC50 was 1.82 µM.
